Source: US7928063B2, “Analogs of human growth hormone-releasing hormone, their preparation and use” (Instytut Farmaceutyczny, priority 2001, dated 2011)
Like-named read-outs stand apart in the source and are kept apart here. Blank lines part the entries; values can stand above or below the compound they belong to. Square brackets hold non-standard residues; d marks the D form. Peptide text beside a SMILES is read from it. * marks the point of attachment. Desaminotyrosyl = O=C(CCc1ccc(O)cc1)*; hArg = N=C(N)NCCCC[C@H](N)C(=O)O; Agb = N=C(N)NCC[C@H](N)C(=O)O; Agp = N=C(N)NC[C@H](N)C(=O)O; Nle = CCCC[C@H](N)C(=O)O

Legend:
trypsin = test: Trypsin digestion test (enzymatic resistance, HPLC); assay type: in vitro ADME; details: for Resistance to trypsin digestion (in words): after 30 minutes
Method: The compounds prepared were also tested for enzymatic resistance in the trypsin digestion test. […] Subsequently, a trypsin solution was added (100 μl; 0.02 mg/ml; Serva, 36 U/mg). […] An aliquot (500 μl) was withdrawn and diluted with 0.5 M acetic acid (1 ml), then lyophilized. The material obtained was analyzed by HPLC, using a Knauer system with an Eurospher 100 C18 (4.6×250 mm, 5 micron) column. The following solvent systems were used: A, 0.1% TFA in water; […]

GH release = test: Effect of subcutaneous administration on GH release (plasma GH by RIA) in male rats; assay type: in vivo, rat; details: for Relative potency compared with hGH-RH-(1-29)—NH2: at 15 minutes after the injection; for Plasma GH at various times after injection, 15 min. / Plasma GH at various times after injection, 30 min. / Plasma GH at various times after injection, 0 min.: male rats, mean ± SEM; for Plasma GH at various times after injection, 0 min.: sample 1 minute before injection; for Net GH concentration Δ(15 − 30): GH at 15 min. minus GH at 30 min.; for Net GH concentration Δ(15 − 0): GH at 15 min. minus GH before injection
[1] = isolated enzyme trypsin, pH 8.5

Compound: CCCC[C@H](NC(=O)[C@@H](NC(=O)[C@H](CC(=O)O)NC(=O)[C@H](CCC(N)=O)NC(=O)[C@H](CC(C)C)NC(=O)[C@H](CC(C)C)NC(=O)[C@H](CCCCNC(=N)N)NC(=O)[C@H](CCCCNC(=N)N)NC(=O)[C@H](C)NC(=O)[C@H](CO)NC(=O)[C@H](CC(C)C)NC(=O)[C@H](CCC(N)=O)NC(=O)[C@H](C)NC(=O)[C@H](CC(C)C)NC(=O)[C@@H](NC(=O)[C@H](CCCCNC(=N)N)NC(=O)[C@H](CCCCNC(=N)N)NC(=O)[C@H](Cc1ccc(O)cc1)NC(=O)[C@H](CO)NC(=O)[C@H](CC(N)=O)NC(=O)[C@@H](NC(=O)[C@H](Cc1ccccc1)NC(=O)[C@@H](NC(=O)[C@H](C)NC(=O)[C@H](CC(=O)O)NC(=O)[C@H](C)NC(=O)CCc1ccc(O)cc1)[C@@H](C)CC)[C@@H](C)O)C(C)C)[C@@H](C)CC)C(=O)N[C@@H](CC(=O)O)C(=O)N[C@@H](CCCCNC(=N)N)C(N)=O [Compound 1, Dat-Ala-Asp-Ala-Ile-Phe-Thr-Asn-Ser-Tyr^10-hArg-hArg-Val-Leu-Ala-Gln-Leu-Ser-Ala-hArg^20-hArg-Leu-Leu-Gln-Asp-Ile-Nle-Asp-hArg^29-NH2] (Desaminotyrosyl-ADAIFTNSY[hArg][hArg]VLAQLSA[hArg][hArg]LLQDI[Nle]D[hArg]-NH2)
Resistance to trypsin digestion (in words) (trypsin): unchanged
remaining at 0.5 h, 0.4 mg/ml (trypsin; isolated enzyme trypsin, trypsin, pH 8.5, 37° C., digestion time 30 min., read-out: % Unchanged compound): > 99%
remaining at 1 h, 0.4 mg/ml (trypsin; isolated enzyme trypsin, trypsin, pH 8.5, 37° C., digestion time 60 min., read-out: % Unchanged compound): > 99%
Relative potency compared with hGH-RH-(1-29)—NH2 (GH release; dose 1.0 μg/kg vs 50 μg/kg of hGH-RH-(1-29)—NH2): 70 times higher
Relative potency compared with hGH-RH-(1-29)—NH2 (GH release; dose 3.0 μg/kg vs 150 μg/kg of hGH-RH-(1-29)—NH2): 38 times higher
Plasma GH at various times after injection, 15 min. (GH release; sc., dose 1 μg/kg): 99.1 ± 16 ng/mL
Plasma GH at various times after injection, 30 min. (GH release; sc., dose 1 μg/kg): 42.5 ± 9.2 ng/mL
Plasma GH at various times after injection, 0 min. (GH release; sc., dose 1 μg/kg): 23.1 ± 2 ng/mL
Plasma GH at various times after injection, 15 min. (GH release; sc., dose 3 μg/kg): 130 ± 16 ng/mL
Plasma GH at various times after injection, 30 min. (GH release; sc., dose 3 μg/kg): 58.4 ± 8.9 ng/mL
Plasma GH at various times after injection, 0 min. (GH release; sc., dose 3 μg/kg): 28.3 ± 4.1 ng/mL
Effect on GH release in rats, compared with saline control (in words) (GH release; rats, sc.): strongest stimulating effect
Net GH concentration Δ(15 − 30) (GH release; rats, sc., dose 1 μg/kg): 56.5 ± 14.7 ng/mL
Net GH concentration Δ(15 − 0) (GH release; rats, sc., dose 1 μg/kg): 75.9 ± 16.0 ng/mL
Net GH concentration Δ(15 − 30) (GH release; rats, sc., dose 3 μg/kg): 72.0 ± 12.6 ng/mL
Net GH concentration Δ(15 − 0) (GH release; rats, sc., dose 3 μg/kg): 102 ± 12.6 ng/mL

remaining at 0.5 h, 0.4 mg/ml (trypsin; [1]): 82%
remaining at 1 h, 0.4 mg/ml (trypsin; [1]): 67%
Compound: CCCC[C@H](NC(=O)[C@@H](NC(=O)[C@H](CC(=O)O)NC(=O)[C@H](CCC(N)=O)NC(=O)[C@H](CC(C)C)NC(=O)[C@H](CC(C)C)NC(=O)[C@H](CCNC(=N)N)NC(=O)[C@H](CCNC(=N)N)NC(=O)[C@H](C)NC(=O)[C@H](CO)NC(=O)[C@H](CC(C)C)NC(=O)[C@H](CCC(N)=O)NC(=O)[C@H](C)NC(=O)[C@H](CC(C)C)NC(=O)[C@@H](NC(=O)[C@H](CCNC(=N)N)NC(=O)[C@H](CCCCNC(=N)N)NC(=O)[C@H](Cc1ccc(O)cc1)NC(=O)[C@H](CO)NC(=O)[C@H](CC(N)=O)NC(=O)[C@@H](NC(=O)[C@H](Cc1ccccc1)NC(=O)[C@@H](NC(=O)[C@H](C)NC(=O)[C@H](CC(=O)O)NC(=O)[C@H](C)NC(=O)CCc1ccc(O)cc1)[C@@H](C)CC)[C@@H](C)O)C(C)C)[C@@H](C)CC)C(=O)N[C@@H](CC(=O)O)C(=O)N[C@@H](CCNC(=N)N)C(N)=O [Compound 4, Dat-Ala-Asp-Ala-Ile-Phe-Thr-Asn-Ser-Tyr^10-hArg-Gab-Val-Leu-Ala-Gln-Leu-Ser-Ala-Gab-Gab-Leu-Leu-Gln-Asp-Ile-Nle-Asp-Gab-NH2] (Desaminotyrosyl-ADAIFTNSY[hArg][Agb]VLAQLSA[Agb][Agb]LLQDI[Nle]D[Agb]-NH2)

remaining at 0.5 h, 0.4 mg/ml (trypsin; [1]): 75%
remaining at 1 h, 0.4 mg/ml (trypsin; [1]): 68%
Compound: CCCC[C@H](NC(=O)[C@@H](NC(=O)[C@H](CC(=O)O)NC(=O)[C@H](CCC(N)=O)NC(=O)[C@H](CC(C)C)NC(=O)[C@H](CC(C)C)NC(=O)[C@H](CNC(=N)N)NC(=O)[C@H](CNC(=N)N)NC(=O)[C@H](C)NC(=O)[C@H](CO)NC(=O)[C@H](CC(C)C)NC(=O)[C@H](CCC(N)=O)NC(=O)[C@H](C)NC(=O)[C@H](CC(C)C)NC(=O)[C@@H](NC(=O)[C@H](CNC(=N)N)NC(=O)[C@H](CNC(=N)N)NC(=O)[C@H](Cc1ccc(O)cc1)NC(=O)[C@H](CO)NC(=O)[C@H](CC(N)=O)NC(=O)[C@@H](NC(=O)[C@H](Cc1ccccc1)NC(=O)[C@@H](NC(=O)[C@H](C)NC(=O)[C@H](CC(=O)O)NC(=O)[C@H](C)NC(=O)CCc1ccc(O)cc1)[C@@H](C)CC)[C@@H](C)O)C(C)C)[C@@H](C)CC)C(=O)N[C@@H](CC(=O)O)C(=O)N[C@@H](CNC(=N)N)C(N)=O [Compound 7, Dat-Ala-Asp-Ala-Ile-Phe-Thr-Asn-Ser-Tyr^10-Gap-Gap-Val-Leu-Ala-Gln-Leu-Ser-Ala-Gap-Gap-Leu-Leu-Gln-Asp-Ile-Nle-Asp-Gap-NH2] (Desaminotyrosyl-ADAIFTNSY[Agp][Agp]VLAQLSA[Agp][Agp]LLQDI[Nle]D[Agp]-NH2)

Resistance to trypsin digestion (in words) (trypsin): complete digestion
remaining at 0.5 h, 0.4 mg/ml (trypsin; trypsin solution (Serva, 36 U/mg), trypsin, pH 8.5, 37° C., digestion time 30 min., read-out: % Unchanged compound): 0%
remaining at 1 h, 0.4 mg/ml (trypsin; trypsin solution (Serva, 36 U/mg), trypsin, pH 8.5, 37° C., digestion time 60 min., read-out: % Unchanged compound): 0%
Compound: CC[C@H](C)[C@H](NC(=O)[C@H](C)NC(=O)[C@H](CC(=O)O)NC(=O)[C@H](C)NC(=O)[C@@H](N)Cc1ccc(O)cc1)C(=O)N[C@@H](Cc1ccccc1)C(=O)N[C@H](C(=O)N[C@@H](CC(N)=O)C(=O)N[C@@H](CO)C(=O)N[C@@H](Cc1ccc(O)cc1)C(=O)N[C@@H](CCCNC(=N)N)C(=O)N[C@@H](CCCCN)C(=O)N[C@H](C(=O)N[C@@H](CC(C)C)C(=O)NCC(=O)N[C@@H](CCC(N)=O)C(=O)N[C@@H](CC(C)C)C(=O)N[C@@H](CO)C(=O)N[C@@H](C)C(=O)N[C@@H](CCCNC(=N)N)C(=O)N[C@@H](CCCCN)C(=O)N[C@@H](CC(C)C)C(=O)N[C@@H](CC(C)C)C(=O)N[C@@H](CCC(N)=O)C(=O)N[C@@H](CC(=O)O)C(=O)N[C@H](C(=O)N[C@@H](CCSC)C(=O)N[C@@H](CO)C(=O)N[C@@H](CCCNC(=N)N)C(N)=O)[C@@H](C)CC)C(C)C)[C@@H](C)O [hGH-RH(1-29)-NH2, reference compound]
